We go through three compounds from patent US20170197910A1, “SUBSTITUTED VINYL AND ALKYNYL CYANOCYCLOALKANOLS AND VINYL AND ALKYNYL CYANOHETEROCYCLOALKANOLS AS ACTIVE AGENTS AGAINST ABIOTIC PLANT STRESS” (BAYER CROPSCIENCE AKTIENGESELLSCHAFT, priority 2014, published 2017).

Test [1] addresses T1, phosphatase ABI1 via the co-regulator RCAR11/PYR1 (Arabidopsis thaliana, UniProt O49686+P49597).
T1 sequence (O49686 1-191): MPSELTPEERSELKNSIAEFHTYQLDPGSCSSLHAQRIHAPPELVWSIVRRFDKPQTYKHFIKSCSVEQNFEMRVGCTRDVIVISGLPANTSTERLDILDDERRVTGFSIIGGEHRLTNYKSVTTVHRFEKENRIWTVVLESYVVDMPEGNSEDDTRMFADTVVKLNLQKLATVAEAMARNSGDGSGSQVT
T1 sequence (P49597 1-434): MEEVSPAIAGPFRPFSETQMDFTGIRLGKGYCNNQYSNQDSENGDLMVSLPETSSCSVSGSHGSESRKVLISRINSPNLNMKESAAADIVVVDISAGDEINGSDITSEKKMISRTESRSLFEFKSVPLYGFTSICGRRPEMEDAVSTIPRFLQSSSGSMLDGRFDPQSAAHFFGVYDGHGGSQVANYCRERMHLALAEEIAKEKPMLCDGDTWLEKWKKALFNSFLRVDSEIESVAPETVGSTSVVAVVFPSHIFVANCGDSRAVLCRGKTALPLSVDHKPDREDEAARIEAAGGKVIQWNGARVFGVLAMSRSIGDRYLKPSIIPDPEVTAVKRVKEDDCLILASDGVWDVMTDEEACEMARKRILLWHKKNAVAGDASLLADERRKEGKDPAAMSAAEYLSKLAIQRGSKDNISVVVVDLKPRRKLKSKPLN
Nature of the test: In vitro inhibition of phosphatase ABI1 via co-regulator RCAR11/PYR1, MUP dephosphorylation fluorescence assay. The note with it: concentration of 5 mM of the substance in DMSO and water; MUP substrate, 35° C., 20 minutes. In kind it is biochemical. The text has this:
Effects of the phytohormone abscisic acid (ABA) on the behaviour of plants under abiotic stress and the mechanism of action of ABA are described in the literature (cf. Abrams et al., WO97/23441, Cutler, Park et al. Science, 2009, 324, 1068; Grill et al. Science, 2009, 324, 1064; Tanokura et al. Biophysics, 2011, 7, 123; Schroeder et al. Plant J. 2010, 61, 290). Therefore, it is possible with the aid of a suitable in vitro test system to derive a correlation between the action of ABA and the stress response of a plant under abiotic stress. In the event of water deficiency (drought stress), plants form the phytohormone abscisic acid (ABA). […]
The assay described hereinafter utilizes the inhibition of the phosphatase ABI1 via the co-regulator RCAR11/PYR1 aus Arabidopsis thaliana. For the determination of activity, the dephosphorylation of 4-methylumbelliferyl phosphate (MUP) was measured at 460 nm. […]
Enzyme buffer mix and substrate mix were made up 5 minutes prior to the addition and warmed to a temperature of 35° C. […] Finally, a relative fluorescence measurement was made at 35° C. with a BMG Labtech “POLARstar Optima” microplate reader using a 340/10 nm excitation filter and a 460 nm emission filter. […]

Test [2] relates to Triticum aestivum. The test is described as follows: In vivo drought stress test on crop plants, spray application, visual scoring vs stressed control (TRZAS). Set-up: key: 0: no positive effect; 10: slight positive effect; 20: clear positive effect; 30: strong positive effect. The note with it: dosage 250 g/ha, average score of 3 pots vs stressed control. The method, then:
(§1) Seeds of monocotyledonous and dicotyledonous crop plants were sown in sandy loam in plastic pots, covered with soil or sand and cultivated in a greenhouse under good growth conditions. The trial plants were treated at the early leaf stage (BBCH10-BBCH13). To assure uniform water supply before commencement of stress, the potted plants were supplied with water by dam irrigation prior to substance application. The inventive compounds, formulated in the form of wettable powders (WP), were sprayed onto the green parts of the plants as an aqueous suspension at an equivalent water application rate of 600 I/ha with addition of 0.2% wetting agent (e.g. agrotin). Substance application was followed immediately by stress treatment of the plants. […] Once this juncture had been reached, the appearance of the plants treated with test substances was recorded in comparison to the stressed control plants by the following categories: • 0 no positive effect • 10 slight positive effect • 20 clear positive effect • 30 strong positive effect In order to rule out any influence on the effects observed by any fungicidal or insecticidal action of the test compounds, it was additionally ensured that the tests proceeded without fungal infection or insect infestation. In each test, for each crop and dosage, plants in 3 pots were treated and evaluated separately. […]

For test [3], the system named is Zea mays. The test is described as follows: In vivo drought stress test on crop plants, spray application, visual scoring vs stressed control (ZEAMX). The note with it: dosage 250 g/ha, average score of 3 pots vs stressed control. Set-up: key: 0: no positive effect; 10: slight positive effect; 20: clear positive effect; 30: strong positive effect. How it is done:
as §1

Regarding `CC(C)C(O)(C#Cc1ccccc1C(=O)O)C1(C#N)CC1` (stereo not shown) [I.1-127, 2-[3-(1-Cyanocyclopropyl)-3-hydroxy-4-methylpent-1-yn-1-yl]benzoic acid], the ABI1 inhibition entry in test [1] is reported as “+++ (90%>inhibition≧70%)”.
As to `COC(=O)c1ccccc1C#CC(O)(C(C)C)C1(C#N)CC1` (stereo not shown) [I.1-130, Methyl 2-[3-(1-cyanocyclopropyl)-3-hydroxy-4-methylpent-1-yn-1-yl]benzoate], in test [2], the “Effect (TRZAS)” value is reported as 20. The “Effect (ZEAMX)” value in test [3] is listed as 20.
Consider `CC1=CC(=O)CC(C)(C)[C@@]1(O)/C=C/C(C)=C\C(=O)O` [abscisic acid, reference compound], for which the ABI1 inhibition entry in test [1] is on record as “++++ (inhibition≧90%)”.
